Laboratory results: patent US20170319534A1, “EUTECTIC ANESTHETIC TOPICAL COMPOSITIONS” (Humco Holding Group, Inc., priority 2016, published 2017)

How the values were obtained:
[1] = 3-month/40° C. stability of topical anesthetics; type: physicochemical; details: for content as percent (in parentheses), 30 DAYS / content, 30 DAYS / content as percent (in parentheses), 60 DAYS / content, 60 DAYS / content as percent (in parentheses), 90 DAYS / content, 90 DAYS: 40° C.; for content as percent (in parentheses), INITIAL / content, INITIAL: 3-month/40° C. stability; for EXPIRY DATING: tentative expiry dating from 3-month/40° C. stability data
Description: The tables below show expiration dates for various topical anesthetics, including 3-month/40° C. stability data. Full-term controlled room temperature stability data are used to support the tentative expiry dating.

[2] = test system: normal human 3D model of epidermal tissue
Description: The remaining components shown in Example 1 above were reduced accordingly, such as by 30.5%. […] Standard Ointment includes 95% white petrolatum and 5% white wax. Permeation was measuring using Franz type diffusion cells and a normal human 3D model of epidermal tissue.

[3] = cited from earlier work

| content as percent (in parentheses), 30 DAYS [1] | content, 30 DAYS [1] [% W/W] | content as percent (in parentheses), 60 DAYS [1] | content, 60 DAYS [1] [% W/W] | content as percent (in parentheses), 90 DAYS [1] | content, 90 DAYS [1] [% W/W] | content as percent (in parentheses), INITIAL [1] | content, INITIAL [1] [% W/W] | EXPIRY DATING [1] [YEARS] | Percutaneous Absorption Testing, 12 Hours [2] [%] | Percutaneous Absorption Testing, 24 Hours [2] [%] | Percutaneous Absorption Testing, 36 Hours [2] [%] | Percutaneous Absorption Testing, 48 Hours [2] [%] | SMILES | time to peak effect (ranking) ([3]; applied to mucous membranes) | duration of action after topical application [3] |
| --- | --- | --- | --- | --- | --- | --- | --- | --- | --- | --- | --- | --- | --- | --- | --- |
| (102.5%) | 20.5 | (102.0%) | 20.4 | (98.0%) | 19.6 | (99.0%) | 19.8 | ~1.2 | 100 | 100 | 100 | 100 | CCOC(=O)c1ccc(N)cc1 [Benzocaine] | fastest | – |
| – | – | – | – | – | – | – | – | – | – | – | – | – | CCCCOc1cc(C(=O)NCCN(CC)CC)c2ccccc2n1 [Dibucaine] | – | 3 to 4 h |
| (103.0%) | 10.3 | (101.0%) | 10.1 | (104.0%) | 10.4 | (100.0%) | 10.0 | ~2.0 | – | – | – | – | CCN(CC)CC(=O)Nc1c(C)cccc1C [Lidocaine] | – | – |
| (102.5%) | 4.1 | (100.0%) | 4.0 | (100.0%) | 4.0 | (95.0%) | 3.8 | ~2.0 | 2 | 2 | 3 | 3 | CCCCNc1ccc(C(=O)OCCN(C)C)cc1 [Tetracaine] | – | up to 2 hours |
